Experimental findings from patent US8106055B2, “Substituted amide compounds” (Gruenenthal GmbH, priority 2007, dated 2012) are described below.

Experiment [1] has as its target T1, human μ opiate receptor (Homo sapiens, UniProt P35372).
T1 construct: purchased PerkinElmer Life Sciences, Zaventem, Belgium RB-HOM; host or cells: CHO-K1 cells (membrane preparation)
The experiment in a line: Affinity for the human μ opiate receptor ([3H]-naloxone displacement, CHO-K1 receptor membrane preparation, SPA). The settings on record: test concentration of 1 μM. The format is binding. The method, boiled down:
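Readout is percent displacement of [3H]-naloxone (1 nmol/l) from human μ receptor in CHO-K1 membranes, measured at 1 μmol/l compound. Incubation runs 90 minutes at room temperature with WGA-SPA beads in Tris-HCl/BSA buffer; non-specific binding is defined with 100 μmol/l naloxone.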

The target in experiment [2] is T2, bradykinin 1 receptor (B1R) of the rat (Rattus norvegicus, UniProt P97583).
T2 construct: expressed in transfected cells; host or cells: CHO K1 cells
T2 sequence (P97583 1-337): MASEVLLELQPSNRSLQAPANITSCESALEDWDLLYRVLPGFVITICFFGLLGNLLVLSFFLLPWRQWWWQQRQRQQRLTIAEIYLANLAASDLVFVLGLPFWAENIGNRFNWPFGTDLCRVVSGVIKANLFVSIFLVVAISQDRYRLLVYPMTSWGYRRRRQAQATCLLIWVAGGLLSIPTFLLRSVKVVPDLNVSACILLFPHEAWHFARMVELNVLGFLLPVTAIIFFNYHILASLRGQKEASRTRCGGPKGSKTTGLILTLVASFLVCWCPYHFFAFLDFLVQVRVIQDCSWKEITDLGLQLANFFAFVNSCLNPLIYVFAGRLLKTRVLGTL
The experiment in a line: Functional investigation on the rat bradykinin 1 receptor (B1R), Ca2+ FLIPR assay in CHO K1 rB1R cells. The format is cell-based. Conditions: B1R antagonism rat; test substance 10 μM; Ca2+ FLIPR, CHO K1 rB1R cells. The method, boiled down:
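Stably transfected CHO K1 cells loaded with Fluo-4; FLIPR Ca2+ fluorescence peak (ex 488/em 540 nm). Compound added first (agonism vs Lys-Des-Arg9-bradykinin ≥50 nM human, Des-Arg9-bradykinin 10 μM rat), then after 10-20 min agonist at EC80; antagonism as % inhibition, IC50 from concentration series, n=2-3, N≥2.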

Structures are written as SMILES.

T1 sequence (P35372 whole entry): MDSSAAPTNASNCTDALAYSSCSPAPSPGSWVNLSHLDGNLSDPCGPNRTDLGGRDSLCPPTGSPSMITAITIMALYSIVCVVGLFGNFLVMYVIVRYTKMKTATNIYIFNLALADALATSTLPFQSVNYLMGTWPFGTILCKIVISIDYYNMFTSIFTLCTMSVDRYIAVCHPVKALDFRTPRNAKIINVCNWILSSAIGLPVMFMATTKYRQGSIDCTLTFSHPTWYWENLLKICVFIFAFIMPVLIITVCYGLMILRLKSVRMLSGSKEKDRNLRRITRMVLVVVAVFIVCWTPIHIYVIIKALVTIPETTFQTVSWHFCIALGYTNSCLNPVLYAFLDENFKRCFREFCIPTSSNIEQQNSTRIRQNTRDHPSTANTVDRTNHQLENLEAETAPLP

In the case of `COc1ccc(S(=O)(=O)N2CCCC2COCC(=O)NCC2CCC(C(c3ccc(F)cc3)N(C)C)CC2)cc1` (centres unmarked) [Example 511], the “μ (binding on the μ opioid receptor, % inhibition)” value in experiment [1] is on record as 39%. In experiment [2], the “B1R Ant. r [10 μM] % Inhibition” value is recorded as 17%.

As to `CN(C)C(c1ccc(F)cc1)C1CCC(CNC(=O)COC2CCCN(S(=O)(=O)c3ccccc3)C2)CC1` (centres unmarked) [Example 488], the “μ (binding on the μ opioid receptor, % inhibition)” value in experiment [1] came to 40%. Moreover, the “B1R Ant. r [10 μM] % Inhibition” value in experiment [2] was −6%.

`CN(C)C(c1ccc(F)cc1)C1CCC(CCNC(=O)COCC2CCCN(S(=O)(=O)c3ccccc3)C2)CC1` (centres unmarked) [Example 479]: in experiment [1], the “μ (binding on the μ opioid receptor, % inhibition)” value turned out to be 42%. In addition, the “B1R Ant. r [10 μM] % Inhibition” value in experiment [2] worked out at 22%.

As for `CN(C)C(CCc1ccccc1)C1CCC(CNC(=O)COCCN(C)S(=O)(=O)c2ccc(Cl)cc2Cl)CC1` (centres unmarked) [Example 513], the “μ (binding on the μ opioid receptor, % inhibition)” value in experiment [1] stood at 38%. Further, the “B1R Ant. r [10 μM] % Inhibition” value in experiment [2] stood at 40%.

Regarding `CN(C)C(c1ccc(Cl)cc1)C1CCC(CNC(=O)COCCN(C)S(=O)(=O)c2ccc(Cl)cc2Cl)CC1` (centres unmarked) [Example 459], the “μ (binding on the μ opioid receptor, % inhibition)” value in experiment [1] is reported as 36%. Further, in experiment [2], the “B1R Ant. r [10 μM] % Inhibition” value worked out at 26%.

Turning to `COc1ccc(S(=O)(=O)N2CCCCC2COCC(=O)NCCC2CCC(C(c3ccc(F)cc3)N(C)C)CC2)cc1OC` (centres unmarked) [Example 462], in experiment [1], the “μ (binding on the μ opioid receptor, % inhibition)” value is reported as 51%. In experiment [2], the “B1R Ant. r [10 μM] % Inhibition” value is on record as −13%.

As to `COc1cc(C)c(S(=O)(=O)N2CCN(CCOCC(=O)NCC3CCC(C(CCc4ccccc4)N(C)C)CC3)CC2)c(C)c1C` (centres unmarked) [Example 528], in experiment [1], the “μ (binding on the μ opioid receptor, % inhibition)” value is reported as 34%. The “B1R Ant. r [10 μM] % Inhibition” value in experiment [2] turned out to be 14%.

Turning to `COc1cc(C)c(S(=O)(=O)N2CCC(OCC(=O)NCC3CCC(C(c4ccc(F)cc4)N(C)C)CC3)C2)c(C)c1` (centres unmarked) [Example 541], the “μ (binding on the μ opioid receptor, % inhibition)” value in experiment [1] was found to be 34%. For the same molecule, the “B1R Ant. r [10 μM] % Inhibition” value in experiment [2] was 104%.

Regarding `COc1ccc(S(=O)(=O)N2CCCCC2COCC(=O)NCCC2CCC(C(c3ccc(F)cc3)N(C)C)CC2)c(OC)c1` (centres unmarked) [Example 500], the “μ (binding on the μ opioid receptor, % inhibition)” value in experiment [1] turned out to be 43%. Also, in experiment [2], the “B1R Ant. r [10 μM] % Inhibition” value is given as 23%.

In the case of `CN(C)C(c1ccc(F)cc1)C1CCC(CCNC(=O)COC2CCN(S(=O)(=O)c3ccccc3)C2)CC1` (centres unmarked) [Example 530], the “μ (binding on the μ opioid receptor, % inhibition)” value in experiment [1] was found to be 26%. Moreover, the “B1R Ant. r [10 μM] % Inhibition” value in experiment [2] stood at 27%.

On to `Cc1cc(C)c(S(=O)(=O)N(C)CCOCC(=O)NC2CCC(C(c3ccc(F)cc3)N(C)C)CC2)c(C)c1` (centres unmarked) [Example 490], for which the “μ (binding on the μ opioid receptor, % inhibition)” value in experiment [1] came out at 42%. For the same molecule, the “B1R Ant. r [10 μM] % Inhibition” value in experiment [2] stood at 12%.

With `COc1cc(C)c(S(=O)(=O)N2CCC(OCC(=O)NC3CCC(C(c4ccc(F)cc4)N(C)C)CC3)CC2)c(C)c1C` (centres unmarked) [Example 454], in experiment [1], the “μ (binding on the μ opioid receptor, % inhibition)” value was 48%. Besides, the “B1R Ant. r [10 μM] % Inhibition” value in experiment [2] is 10%.

Take `COc1cc(C)c(S(=O)(=O)N(CCOCC(=O)NC2CCC(C(c3ccc(F)cc3)N(C)C)CC2)Cc2ccccc2)c(C)c1` (centres unmarked) [Example 504]: in experiment [1], the “μ (binding on the μ opioid receptor, % inhibition)” value turned out to be 43%. Besides, the “B1R Ant. r [10 μM] % Inhibition” value in experiment [2] is listed as 48%.

With `CN(C)C(c1ccc(F)cc1)C1CCC(CCNC(=O)COC2CCN(S(=O)(=O)c3cccc(C(F)(F)F)c3)C2)CC1` (centres unmarked) [Example 466], the “μ (binding on the μ opioid receptor, % inhibition)” value in experiment [1] turned out to be 30%. The “B1R Ant. r [10 μM] % Inhibition” value in experiment [2] is on record as 22%.

Consider `CN(C)C(CCc1ccccc1)C1CCC(CNC(=O)COCCN(C)S(=O)(=O)c2ccc(F)cc2)CC1` (centres unmarked) [Example 539], for which the “μ (binding on the μ opioid receptor, % inhibition)” value in experiment [1] was 32%. The “B1R Ant. r [10 μM] % Inhibition” value in experiment [2] is 32%.

Take `COc1cc(C)c(S(=O)(=O)N2CCC(OCC(=O)NCC3CCC(C(c4ccc(Cl)cc4)N(C)C)CC3)CC2)c(C)c1C` (centres unmarked) [Example 498]: in experiment [1], the “μ (binding on the μ opioid receptor, % inhibition)” value turned out to be 36%. Moreover, in experiment [2], the “B1R Ant. r [10 μM] % Inhibition” value was determined as 2%.

As for `COc1cc(C)c(S(=O)(=O)N2CCCC(OCC(=O)NCCC3CCC(C(c4ccc(F)cc4)N(C)C)CC3)C2)c(C)c1C` (centres unmarked) [Example 468], the “μ (binding on the μ opioid receptor, % inhibition)” value in experiment [1] is 53%. For the same molecule, the “B1R Ant. r [10 μM] % Inhibition” value in experiment [2] is reported as 33%.

For the molecule `COc1cc(C)c(S(=O)(=O)N(C)CCOCC(=O)NCC2CCC(C(CCc3ccccc3)N(C)C)CC2)c(C)c1` (centres unmarked) [Example 525], the “μ (binding on the μ opioid receptor, % inhibition)” value in experiment [1] was determined as 31%. In addition, the “B1R Ant. r [10 μM] % Inhibition” value in experiment [2] was 93%.

For `CN(C)C(CCc1ccccc1)C1CCC(CNC(=O)COCCN(Cc2ccccc2)S(=O)(=O)c2ccccc2)CC1` (centres unmarked) [Example 533], the “μ (binding on the μ opioid receptor, % inhibition)” value in experiment [1] is on record as 28%. The “B1R Ant. r [10 μM] % Inhibition” value in experiment [2] is 12%.

For `COc1cc(C)c(S(=O)(=O)N2CCC(OCC(=O)NCC3CCC(C(c4ccc(F)cc4)N(C)C)CC3)CC2)c(C)c1C` (centres unmarked) [Example 527], in experiment [1], the “μ (binding on the μ opioid receptor, % inhibition)” value came to 38%. The “B1R Ant. r [10 μM] % Inhibition” value in experiment [2] is 68%.

Regarding `COc1cc(C)c(S(=O)(=O)N(C)CCOCC(=O)NCC2CCC(C(c3ccc(F)cc3)N(C)C)CC2)c(C)c1` (centres unmarked) [Example 458], the “μ (binding on the μ opioid receptor, % inhibition)” value in experiment [1] came to 48%. Moreover, the “B1R Ant. r [10 μM] % Inhibition” value in experiment [2] is listed as 104%.

In the case of `COc1ccc(S(=O)(=O)N2CCC(OCC(=O)NC3CCC(C(c4ccc(F)cc4)N(C)C)CC3)C2)cc1OC` (centres unmarked) [Example 512], the “μ (binding on the μ opioid receptor, % inhibition)” value in experiment [1] is given as 42%. Moreover, the “B1R Ant. r [10 μM] % Inhibition” value in experiment [2] came out at 38%.

In the case of `CN(C)C(c1ccc(F)cc1)C1CCC(CCNC(=O)COCCN(C)S(=O)(=O)c2ccc(F)cc2)CC1` (centres unmarked) [Example 487], the “μ (binding on the μ opioid receptor, % inhibition)” value in experiment [1] amounted to 37%. Besides, in experiment [2], the “B1R Ant. r [10 μM] % Inhibition” value is 9%.

In the case of `COc1cc(C)c(S(=O)(=O)N2CCC(OCC(=O)NCCC3CCC(C(c4ccc(Cl)cc4)N(C)C)CC3)C2)c(C)c1` (centres unmarked) [Example 492], the “μ (binding on the μ opioid receptor, % inhibition)” value in experiment [1] stood at 44%. For the same molecule, in experiment [2], the “B1R Ant. r [10 μM] % Inhibition” value is listed as 78%.

For the molecule `COc1ccc(S(=O)(=O)N2CCCCC2COCC(=O)NCCC2CCC(C(c3ccc(Cl)cc3)N(C)C)CC2)c(OC)c1` (centres unmarked) [Example 474], the “μ (binding on the μ opioid receptor, % inhibition)” value in experiment [1] turned out to be 46%. For the same molecule, the “B1R Ant. r [10 μM] % Inhibition” value in experiment [2] was 10%.

As to `COc1cc(C)c(S(=O)(=O)N(CCOCC(=O)NC2CCC(C(c3ccc(F)cc3)N(C)C)CC2)Cc2ccccc2)c(C)c1C` (centres unmarked) [Example 523], the “μ (binding on the μ opioid receptor, % inhibition)” value in experiment [1] was found to be 34%. Further, the “B1R Ant. r [10 μM] % Inhibition” value in experiment [2] is 26%.

On to `COc1cc(C)c(S(=O)(=O)N2CCC(CCOCC(=O)NCCC3CCC(C(c4ccc(F)cc4)N(C)C)CC3)CC2)c(C)c1C` (centres unmarked) [Example 510], for which the “μ (binding on the μ opioid receptor, % inhibition)” value in experiment [1] amounted to 33%. The “B1R Ant. r [10 μM] % Inhibition” value in experiment [2] worked out at 27%.

In the case of `COc1cc(C)c(S(=O)(=O)N2CCC(OCC(=O)NCCC3CCC(C(c4ccc(Cl)cc4)N(C)C)CC3)CC2)c(C)c1C` (centres unmarked) [Example 472], the “μ (binding on the μ opioid receptor, % inhibition)” value in experiment [1] came to 44%. Besides, the “B1R Ant. r [10 μM] % Inhibition” value in experiment [2] was determined as 26%.

Take `CN(C)C(c1ccc(F)cc1)C1CCC(CNC(=O)COC2CCN(S(=O)(=O)c3ccccc3)C2)CC1` (centres unmarked) [Example 532]: the “μ (binding on the μ opioid receptor, % inhibition)” value in experiment [1] is given as 35%. In addition, the “B1R Ant. r [10 μM] % Inhibition” value in experiment [2] is −14%.

Turning to `COc1ccc(S(=O)(=O)N2CCC(OCC(=O)NCC3CCC(C(c4ccc(F)cc4)N(C)C)CC3)C2)cc1OC` (centres unmarked) [Example 497], in experiment [1], the “μ (binding on the μ opioid receptor, % inhibition)” value was determined as 37%. Moreover, the “B1R Ant. r [10 μM] % Inhibition” value in experiment [2] came to 17%.

Take `COc1ccc(S(=O)(=O)N(C)CCOCC(=O)NCCC2CCC(C(c3ccc(F)cc3)N(C)C)CC2)cc1OC` (centres unmarked) [Example 484]: the “μ (binding on the μ opioid receptor, % inhibition)” value in experiment [1] was found to be 35%. Besides, in experiment [2], the “B1R Ant. r [10 μM] % Inhibition” value is given as 19%.
